Laboratory results published in patent US4277465A, “Adjuvant for promoting absorption of therapeutically active substances through the digestive tract” (Kyoto Yakuhin Kogyo Kabushiki Kaisha, priority 1978, dated 1981).
Where “and” joins values, the source holds several entries; their conditions need not be identical. Equal entries are not always repeated.

Columns and labels:
[1] = Stability in aqueous solution (half-life of enamine derivatives); format: physicochemical; conditions: pH 7.4 phosphate buffer, μ 0.15, 25° C., UV absorption spectrometry; "stable" = enamine structure retained even after 6 hours
Experimental: To examine the stability in water of the enamine derivatives (I) obtained above, some representative compounds were selected and their half-lives [t 0.5 (min.)] in pH 7.4 phosphate buffer (μ: 0.15, temp.: 25° C.) were determined by ultraviolet absorption spectrometry. In the Table, "stable" means that the enamine structure was retained even after 6 hours.

[2] = Rectal ointment of AB-PC.Na with enamine derivative, blood concentration; format: in vivo, rabbit; conditions: rectal ointment AB-PC.Na 10%, enamine derivative 10%, dose 15 mg AB-PC.Na/kg
Experimental: (§1) AB-PC and cephalexin (briefly, CEX), both of which are sparingly absorbed from the rectum, are also tested. Thus, enamine derivatives (I) and these antibiotics were used to prepare rectal ointments in accordance with established practice. The ointments were administered to rabbits to investigate the peak blood concentrations (μg/ml) and AUC (μg.min./ml).
Dose: 15mg AB-PC . Na/kg
Compounds 3, 5, 13 and 14 were used as said enamine derivatives (I) in Recipes 4, 5, 6 and 7, respectively.

[3] = Rectal ointment of CET-Na with enamine derivative, blood concentration; format: in vivo, rabbit; conditions: for AUC / Peak blood concentration: CET, rectal ointment CET.Na 20%, enamine derivative 10%, dose 50 mg CET.Na/kg
Experimental: Cephalothin sodium (briefly CET-Na), a drug which is sparingly absorbed from the rectum, was selected for a test. Thus, CET-Na was dispersed in liquid paraffin-white vaseline base to prepare rectal ointment. The ointment was administered to rabbits by the rectal route. […] The blood concentration was measured in conformity with the biological assay method in the Antibiotic Standard of Japan. […]

[4] = Rectal inulin dosage form with adjuvant, urinary recovery of inulin; format: in vivo, human; conditions: Lunt method
Experimental: (§2) The following dosage forms (dispersed in Witepsol H-15®) were rectally administered to dogs and humans to measure the urinary recovery rates of inulin. […] The test was carried out by the Lunt method.

[5] = Rectal suppositories of AB-PC-Na with enamine derivative, concentration in blood; format: in vivo; conditions: AB-PC-Na 75mg, enamine derivative 60mg, base SB-W 1065mg, dog
Experimental: These suppositories were rectally administered to dogs and the absorbabilities of the active components were investigated by measuring the blood concentrations. The blood concentrations were measured in conformity with the biological assay method in the Antibiotic Standard of Japan. The cup method was employed with Sarcina lutea for penicillins and Bacillus subtilis for cephalosporins.

[6] = Rectal ointment of CEX.H2O with enamine derivative, blood concentration; format: in vivo, rabbit; conditions: rectal ointment CEX.H2O 20%, enamine derivative 10%, dose 50 mg CEX.H2O/kg
Experimental: as §1
Dose: 50 mg CEX . H2 O/kg

[7] = Oral capsule of AB-PC sodium with adjuvant, blood concentration of AB-PC; format: in vivo; conditions: AB-PC sodium 15 mg/kg + Compound 3 10 mg/kg, one value per rabbit, sodium salt
Experimental: Ampicillin (briefly, AB-PC) sodium
Capsules each containing the above indicated amounts of components were prepared by the conventional procedure and administrered to 3 rabbits. Immediately thereafter, each animal was given 20 ml of water and the concentration of AB-PC in the blood was measured by the biological assay method. In the figure, white circles represent AB-PC alone and black circles represent the capsule according to this invention.
The blood concentrations were measured in conformity with the Antibiotic Standard of Japan. The cup method was employed with Sarcina lutea.

[8] = Rectal insulin suppository with Compound 3, blood glucose concentration (glucoseoxidase method); format: in vivo, rabbit; conditions: 3 I.U. insulin per animal + Compound 3 0.05 g in Witepsol H-15
Experimental: The test was conducted by the glucoseoxidase method. […] The largest depression of blood glucose from the pre-medication level was expressed in % response.

[9] = Rectal inulin suppository with adjuvant, urinary recovery of inulin; format: in vivo, rabbit
Experimental: The above components were used to prepare a suppository in accordance with established pharmaceutical practice. The suppository was rectally administered to rabbits (body weights 2.0-2.5 kg) and the blood concentrations were determined.
The results, shown in FIG. 7, indicates the versatility of enamine derivative (I). The amount of inulin excreted in the urine was 18% of the dose administered.
as §2

[10] = Rectal inulin dosage form with adjuvant, urinary recovery of inulin; format: in vivo, dog; conditions: in Witepsol H-15, level of addition of enamine derivative 5%, Lunt method
Experimental: as §2

Row | half-life t 0.5 [1] | AUC [2] | Peak blood concentration [2] | AUC [3] | Peak blood concentration [3] | SMILES | also measured
1 | Stable | 149 µg·min/mL | 4.7 µg/mL | 306 µg·min/mL | 6.1 µg/mL | CCOC(=O)C(=CN[C@@H](C(=O)[O-])c1ccccc1)C(=O)OCC.[Na+] [Compound 5, N-[2,2-bis(ethoxycarbonyl)vinyl]-D-phenylglycine sodium salt] | 
2 | Stable |  |  | 568 µg·min/mL | 11.0 µg/mL | CC(=O)C=C(C)N[C@@H](C(=O)[O-])c1ccccc1.[Na+] [Compound 4, N-(1-Methyl-2-acetylvinyl)-D-phenylglycine sodium salt] | 
3 | 26.1 min | 270 µg·min/mL | 4.8 µg/mL | 445 µg·min/mL | 14.4 µg/mL | CCOC(=O)C=C(C)N[C@@H](C(=O)[O-])c1ccccc1.[Na+] [Compound 3, N-(1-Methyl-2-ethoxycarbonylvinyl)-D-phenylglycine sodium salt] | area under the blood-concentration curve (AUC) of AB-PC relative to AB-PC alone [7]: 1.52 times and 1.99 times and 1.73 times; change in blood concentration of CET (in words) ([3]; rectal ointment CET-Na 20%, Compound 3 10%, dose 50 mg CET-Na/kg, FIG. 3): high CET level in the blood could by very quickly achieved; reduction of blood glucose concentration from the pre-medication level [8]: about 50%; % Urinary recovery ([9]; inulin, rectal, in Witepsol H-15, level of addition of enamine derivative 10%, Lunt method): 8%; amount of inulin excreted in the urine ([9]; rectal suppository, inulin 0.25 g + Compound 3 0.05 g in Witepsol H-15): 18 % of the dose administered; % Urinary recovery [10]: 20%; % Urinary recovery ([4]; in Witepsol H-15, level of addition of enamine derivative 1%): 11%

The next lines start with the molecule.

Row | SMILES | half-life t 0.5 [1] | AUC [2] | Peak blood concentration [2] | AUC [3] | Peak blood concentration [3] | also measured
4 | CCOC(=O)C=C(C)NCC(=O)[O-].[Na+] [Compound 1, N-(1-Methyl-2-ethoxycarbonylvinyl)glycine sodium salt] | 3.7 min |  |  |  |  | % Urinary recovery ([4]; in Witepsol H-15, level of addition of enamine derivative 2%): 12%; Concentration in blood, 15 min. [5]: 1230 ng/mL; Concentration in blood, 30 min. [5]: 870 ng/mL; Concentration in blood, 60 min. [5]: 610 ng/mL; Concentration in blood, 120 min. [5]: 320 ng/mL
5 | CCOC(=O)C=C(C)N1CCC[C@H]1C(=O)[O-].[Na+] [Compound 13, N-(1-Methyl-2-ethoxycarbonylvinyl)-L-proline sodium salt] | 3.1 min | 108 µg·min/mL | 2.6 µg/mL | 25 µg·min/mL | 2.5 µg/mL | AUC [6]: 733 µg·min/mL; Peak blood concentration [6]: 6.5 µg/mL
6 | CCOC(=O)C=C(C)NCCCC(=O)[O-].[Na+] [Compound 2, N-(1-Methyl-2-ethoxycarbonylvinyl)-γ-aminobutyric acid sodium salt] | 18.8 min |  |  | 315 µg·min/mL | 6.3 µg/mL | AUC [6]: 278 µg·min/mL; Peak blood concentration [6]: 6.7 µg/mL
7 | CCOC(=O)C=C(C)NCCS(=O)(=O)[O-].[Na+] [Compound 14, N-(1-Methyl-2-ethoxycarbonylvinyl)taurine sodium salt] | 24.0 min | 239 µg·min/mL | 5.9 µg/mL | 250 µg·min/mL | 7.8 µg/mL | 
